According to patent EP4563577A1, “NOVEL SALT OF IMIDAZO[1,2-A]PYRIDINE COMPOUND, CRYSTALLINE FORM THEREOF, AND PREPARATION METHOD” (Jeil Pharmaceutical Co., Ltd., priority 2022, dated 2024):

What was measured:
[1] = Bioavailability evaluation (pharmacokinetics after oral capsule administration); assay type: in vivo; settings: fasted male beagle dogs, oral capsules, 10 mg/kg; for AUC(0-inf) / AUC(0-t) / Cmax / Tmax: dog, plasma
Method: Bioavailability was evaluated with regard to azetidin-1-yl{8-[(2,6-dimethylbenzyl)amino]-2,3-dimethylimidazo[1,2-a]pyridin-6-yl}methanone citrate according to Example 4(1) of the present invention and azetidin-1-yl{8-[(2,6-dimethylbenzyl)amino]-2,3-dimethylimidazo[1,2-a]pyridin-6-yl}methanone obtained according to Preparation Example 1 as an comparative example. Specific pharmacokinetic experiments and evaluation methods are as follows.
Fasted male beagle dogs were orally administered with capsules at a dose of 10 mg/kg, and bled at 0.08, 0.25, 0.5, 1, 3, 5, 8, and 24 hours after administration. Blood collected in an amount of 3 ml each from the jugular vein was centrifuged to separate plasma, and stored frozen in a cryogenic freezer before analysis.
Plasma pretreatment was performed by a protein precipitation method. 300 ul of acetonitrile containing an internal standard (200 ng/ml of carbamazepine) was added to 100 ul of a plasma sample and mixed. After sufficiently mixing, the resulting mixture was centrifuged at 12,000 rpm for 10 minutes, after which the supernatant was transferred to an assay vial and injected into a LC-MS/MS to analyze a blood concentration of the compound.
Parameters of time to maximum plasma concentration (Tmax), maximum plasma concentration (Cmax), and area under the plasma-concentration time curve (AUC0-t, AUC0-inf) were obtained using PK Solution.

[2] = Short-term storage stability (heat/moisture), purity by HPLC; assay type: physicochemical
Method: Purity of azetidin-1-yl{8-[(2,6-dimethylbenzyl)amino]-2,3-dimethylimidazo[1,2-a]pyridin-6-yl}methanone citrate according to Example 4(1) of the present invention was measured, and then the purity was measured after being left at 60°C for four days. Purity measurements were performed by HPLC. In addition, with regard to azetidin-1-yl{8-[(2,6-dimethylbenzyl)amino]-2,3-dimethylimidazo[1,2-a]pyridin-6-yl}methanone citrate according to Example 4(1) of the present invention, the purity was measured after being left for two days under the condition of 75 to 90% humidity (RH).

[3] = Long-term storage stability (25±2°C, 60±5% RH); assay type: physicochemical; settings: for Moisture: criteria 1.0% or less; for Purity: criteria 99.0% or more; for Property: criteria: White to yellowish off-white powder
Method: (§1) An X-ray powder diffraction pattern was obtained through a solid phase detector over a range of 2° to 40° of a diffraction angle (2θ) with a 0.02° step size by using D8 Focus (Bruker ASX). The moisture content of the obtained sample was measured with an 870KF Titrino Plus (Metrohm) Karl-Fischer moisture meter. Immediately after preparing azetidin-1-yl{8-[(2,6-dimethylbenzyl)amino]-2,3-dimethylimidazo[1,2-a]pyridin-6-yl}methanone citrate according to Example 4(1) of the present invention, properties were confirmed with naked eyes, and the moisture content, purity, and XRD were measured, respectively. Subsequently, the same was primarily sealed in a polyethylene bag and then secondarily sealed in an aluminum bag, and then the properties were confirmed with naked eyes and the moisture content, purity, and XRD were also measured at 12, 24 and 36 months after being stored under the condition of 25±2°C and 60±5% RH.

[4] = Thermal and moisture stability under accelerated conditions (40±2°C, 75±5% RH); assay type: physicochemical; settings: for Moisture: criteria 1.0% or less; for Purity: criteria 99.0% or more; for Property: criteria: White to yellowish off-white powder
Method: as §1, with “at one” for “at 12, 24”, “and six” for “and 36”, “under an accelerated” for “under the”, “of 40±2°C” for “of 25±2°C”, “and 75±5%” for “and 60±5%”

[5] = Photostability evaluation (discoloration observed with naked eyes); assay type: physicochemical
Method: It is determined to be suitable only when the white to yellowish off-white powder form is maintained as a solid property.

[6] = Immediately after preparation (Initial value)

`Cc1cccc(C)c1CNc1cc(C(=O)N2CCC2)cn2c(C)c(C)nc12` [Compound I (free base), Azetidin-1-yl{8-[(2,6-dimethylbenzyl)amino]-2,3-dimethylimidazo[1,2-a]pyridin-6-yl}methanone] gave an AUC(0-inf) [1] of 2820 ng·h/mL, an AUC(0-t) [1] of 2630 ng·h/mL and a Cmax [1] of 262 ng/mL. For the same compound, the Tmax [1] was 5 h.
In the case of `Cc1cccc(C)c1CNc1cc(C(=O)N2CCC2)cn2c(C)c(C)nc12.O=C(O)CC(O)(CC(=O)O)C(=O)O` [Citrate of Compound I, azetidin-1-yl{8-[(2,6-dimethylbenzyl)amino]-2,3-dimethylimidazo[1,2-a]pyridin-6-yl}methanone citrate], the “Purity (%)” value ([2]; Humidity 75~90 %, Day 2) is reported as 99.976%, the “Purity (%)” value ([2]; Initial value) is reported as 99.955% and the “Purity (%)” value ([2]; Temperature 60°C, Day 4) is reported as 99.974%. For the same compound, the “XRD (Comparison with initial value)” value ([3]; 12 months, 25±2°C, 60±5% RH) was “Same”, the Moisture ([3]; 12 months, 25±2°C, 60±5% RH) was 0.52% and the Purity ([3]; 12 months, 25±2°C, 60±5% RH) was 99.96%. The Property ([3]; 12 months, 25±2°C, 60±5% RH) was “Suitable”, the “XRD (Comparison with initial value)” value ([3]; 24 months, 25±2°C, 60±5% RH) was “Same” and the Moisture ([3]; 24 months, 25±2°C, 60±5% RH) was 0.45%. The Purity ([3]; 24 months, 25±2°C, 60±5% RH) was 99.97%, the Property ([3]; 24 months, 25±2°C, 60±5% RH) was “Suitable” and the “XRD (Comparison with initial value)” value ([3]; 36 months, 25±2°C, 60±5% RH) was “Same”. The Moisture ([3]; 36 months, 25±2°C, 60±5% RH) was 0.60%, the Purity ([3]; 36 months, 25±2°C, 60±5% RH) was 99.96% and the Property ([3]; 36 months, 25±2°C, 60±5% RH) was “Suitable”. For the same compound, the “XRD (Comparison with initial value)” value [3, 6] was “Same”, the Moisture [3, 6] was 0.74% and the Purity [3, 6] was 99.96%. For the same compound, the Property [3, 6] was “Suitable”, the “XRD (Comparison with initial value)” value ([4]; 1 month, 40±2°C, 75±5% RH) was “Same” and the Moisture ([4]; 1 month, 40±2°C, 75±5% RH) was 0.75%. The Purity ([4]; 1 month, 40±2°C, 75±5% RH) was 99.97%, the Property ([4]; 1 month, 40±2°C, 75±5% RH) was “Suitable” and the “XRD (Comparison with initial value)” value ([4]; 6 months, 40±2°C, 75±5% RH) was “Same”. The Moisture ([4]; 6 months, 40±2°C, 75±5% RH) was 0.15%, the Purity ([4]; 6 months, 40±2°C, 75±5% RH) was 99.96% and the Property ([4]; 6 months, 40±2°C, 75±5% RH) was “Suitable”. For the same compound, the “XRD (Comparison with initial value)” value [4, 6] was “Same”, the Moisture [4, 6] was 0.74% and the Purity [4, 6] was 99.96%. For the same compound, the Property [4, 6] was “Suitable”, the color ([5]; Initial value) was “White” and the color ([5]; UV 200 watt (35 W), 25°C, humidity 60%) was “Off-white”. The color ([5]; Visible 1200k lux (35k lux), 25°C, humidity 60%) was “Slightly off-white”, the AUC(0-inf) [1] was 15200 ng·h/mL and the AUC(0-t) [1] was 15000 ng·h/mL. The Cmax [1] was 3030 ng/mL, the Tmax [1] was 1 h and the “AUC improvement relative to Comparative Example (compound I free base)” value [1] was “five times or more”. The “Cmax increase relative to Comparative Example (compound I free base)” value [1] was no less than 11 times.
